Source: PMC4767940 (PLoS ONE, 2016)

Tests used:
[1] = tested on: CD8+ T cells; settings: cited from earlier work
[2] = target: H-2D^b on the surface of RMA-S cells (mouse (endogenous in RMA/S)); assay: flow cytometry on cells

Compound	formation of memory CD8+ T cell responses [1]	half-life of the peptide on H-2D^b [2] [h]
O=CC[C@@H](O)[C@H](O)[C@H](O)CO [2-deoxyglucose]	augments the formation of memory CD8+ T cell responses	–
GP33-41 peptide (wildtype GP33 epitope of LCMV)	–	> 5
